Reference: patent publication US20250382305A1 (PTC THERAPEUTICS, INC., priority 2022, published 2025)

Key:
ATXN3 pre-mRNA = experiment: RT-qPCR Assay to Quantify Exon 4 Skipping in ATXN3 pre-mRNA in Cells; type: cell-based; settings: percent exon 4 skipping in ATXN3 pre-mRNA, RT-qPCR of cell lysates; average IC50
In short: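 IC50 derives from a dose-response fit of percent exon 4 skipping, quantified by RT-qPCR on crude lysates. Compounds tested as 7-point 3.16-fold dilutions in duplicate; cells (10,000/well) were exposed for 24 h at 37 °C before lysis.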

[1] = tested on: Total ATXN3 (tATXN3) protein; experiment: Endogenous Total ATXN3 (tATXN3) Protein Assay (MSD immunoassay of cell lysates); type: cell-based; settings: average IC50, total ATXN3 protein in cell lysate after 48 h with compound (Table 1)
In short: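 By electrochemiluminescent MSD sandwich immunoassay (mouse monoclonal capture, rabbit monoclonal and SULFO-TAG anti-rabbit detection), endogenous ATXN3 was quantified in lysates of cells treated 48 h at 37° C at 10,000 cells/well. Treatment used a 7-point 3.16-fold duplicate dilution series, with average IC50 grouped into star categories.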

Compound | IC50 (ATXN3 pre-mRNA) [nM] | IC50 [1] [nM]
N[C@H]1CCCO[C@@H]1c1c(Cl)c2nc(Cl)cc(NCc3cccs3)c2n1C(F)F [Compound 262, 2-((2S,3S)-3-aminotetrahydro-2H-pyran-2-yl)-3,5-dichloro-1-(difluoromethyl)-N-(thiophen-2-ylmethyl)-1H-pyrrolo[3,2-b]pyridin-7-amine] | 30 to 300 | 30 to 300
N[C@H]1CC=CC[C@@H]1c1sc2c(NCc3ccccc3)nc(Cl)nc2c1Cl [Compound 263, 6-((1S,6S)-6-aminocyclohex-3-en-1-yl)-N-benzyl-2,7-dichlorothieno[3,2-d]pyrimidin-4-amine] | 30 to 300 | 30 to 300
CN[C@H]1CCCC[C@@H]1c1sc2c(NCc3cccs3)cc(Cl)nc2c1C#CCCCO [Compound 264, 5-(5-chloro-2-((1S,2S)-2-(methylamino)cyclohexyl)-7-((thiophen-2-ylmethyl)amino)thieno[3,2-b]pyridin-3-yl)pent-4-yn-1-ol] | ≤ 30 | 30 to 300
N[C@H]1COCC[C@@H]1c1sc2c(NCc3nccs3)cc(Cl)nc2c1I [Compound 265, 2-((3R,4S)-3-aminotetrahydro-2H-pyran-4-yl)-5-chloro-3-iodo-N-(thiazol-2-ylmethyl)thieno[3,2-b]pyridin-7-amine] | ≤ 30 | 30 to 300
C=Cc1c([C@H]2CC=CC[C@@H]2N)sc2c(NCc3cccs3)cc(Cl)nc12 [Compound 267, 2-((1S,6S)-6-aminocyclohex-3-en-1-yl)-5-chloro-N-(thiophen-2-ylmethyl)-3-vinylthieno[3,2-b]pyridin-7-amine] | 30 to 300 | 30 to 300
Cc1c([C@H]2CC=CC[C@@H]2N)sc2c(NCc3cccs3)nc(Cl)nc12 [Compound 268, 6-((1S,6S)-6-aminocyclohex-3-en-1-yl)-2-chloro-7-methyl-N-(thiophen-2-ylmethyl)thieno[3,2-d]pyrimidin-4-amine] | 30 to 300 | 30 to 300
N[C@H]1CCCO[C@@H]1c1c(Br)c2nc(Cl)cc(NCc3ccco3)c2n1C(F)F [Compound 270, 2-((2S,3S)-3-aminotetrahydro-2H-pyran-2-yl)-3-bromo-5-chloro-1-(difluoromethyl)-N-(furan-2-ylmethyl)-1H-pyrrolo[3,2-b]pyridin-7-amine] | 30 to 300 | 30 to 300
N[C@H]1CCCO[C@@H]1c1c(Cl)c2nc(Cl)nc(NCc3ccco3)c2n1C(F)F [Compound 271, 6-((2S,3S)-3-aminotetrahydro-2H-pyran-2-yl)-2,7-dichloro-5-(difluoromethyl)-N-(furan-2-ylmethyl)-5H-pyrrolo[3,2-d]pyrimidin-4-amine] | 30 to 300 | 30 to 300
N[C@H]1CCCO[C@@H]1c1c(Cl)c2nc(Cl)cc(NCc3ccco3)c2n1C(F)F [Compound 273, 2-((2S,3S)-3-aminotetrahydro-2H-pyran-2-yl)-3,5-dichloro-1-(difluoromethyl)-N-(furan-2-ylmethyl)-1H-pyrrolo[3,2-b]pyridin-7-amine] | ≤ 30 | 30 to 300
Cc1c([C@H]2CC=C(C(N)=O)C[C@@H]2N)sc2c(NCc3cccs3)cc(Cl)nc12 [Compound 274, (4S,5S)-5-amino-4-(5-chloro-3-methyl-7-((thiophen-2-ylmethyl)amino)thieno[3,2-b]pyridin-2-yl)cyclohex-1-ene-1-carboxamide] | 30 to 300 | 30 to 300
N[C@H]1CC=CC[C@@H]1c1c(I)c2nc(Cl)nc(NCc3ccco3)c2n1C(F)F [Compound 276, 6-((1S,6S)-6-aminocyclohex-3-en-1-yl)-2-chloro-5-(difluoromethyl)-N-(furan-2-ylmethyl)-7-iodo-5H-pyrrolo[3,2-d]pyrimidin-4-amine] | 30 to 300 | 30 to 300
CCOC(=O)C1=CC[C@H](c2sc3c(NCc4cccs4)cc(Cl)nc3c2C)[C@@H](N)C1 [Compound 277, ethyl (4S,5S)-5-amino-4-(5-chloro-3-methyl-7-((thiophen-2-ylmethyl)amino)thieno[3,2-b]pyridin-2-yl)cyclohex-1-ene-1-carboxylate] | ≤ 30 | 30 to 300
Cc1c([C@H]2CCCC[C@@H]2N)sc2c(NCc3ccccc3)cc(Cl)nc12 [Compound 280, 2-((1S,2S)-2-aminocyclohexyl)-N-benzyl-5-chloro-3-methylthieno[3,2-b]pyridin-7-amine] | 30 to 300 | 30 to 300
N[C@H]1CCCO[C@@H]1c1c(Br)c2nc(Cl)cc(NCc3cccs3)c2n1C(F)F [Compound 281, 2-((2S,3S)-3-aminotetrahydro-2H-pyran-2-yl)-3-bromo-5-chloro-1-(difluoromethyl)-N-(thiophen-2-ylmethyl)-1H-pyrrolo[3,2-b]pyridin-7-amine] | 30 to 300 | 30 to 300
CC#CCNc1cc(Cl)nc2c(I)c([C@H]3CCCC[C@@H]3N)sc12 [Compound 283, 2-((1S,2S)-2-aminocyclohexyl)-N-(but-2-yn-1-yl)-5-chloro-3-iodothieno[3,2-b]pyridin-7-amine] | 30 to 300 | 30 to 300

Next, values leading:

IC50 (ATXN3 pre-mRNA) [nM] | IC50 [1] [nM] | Compound
30 to 300 | 30 to 300 | N[C@H]1COCC[C@@H]1c1sc2c(NCc3nccs3)cc(Cl)nc2c1Br [Compound 285, 2-((3R,4S)-3-aminotetrahydro-2H-pyran-4-yl)-3-bromo-5-chloro-N-(thiazol-2-ylmethyl)thieno[3,2-b]pyridin-7-amine]
30 to 300 | 30 to 300 | N[C@H]1CC=CC[C@@H]1c1sc2c(NCc3ccccc3F)cc(Cl)nc2c1Br [Compound 287, 2-((1S,6S)-6-aminocyclohex-3-en-1-yl)-3-bromo-5-chloro-N-(2-fluorobenzyl)thieno[3,2-b]pyridin-7-amine]
30 to 300 | 30 to 300 | Cc1c([C@H]2CC=CC[C@@H]2N)sc2c(NCc3ccco3)cc(C#N)nc12 [Compound 289, 2-((1S,6S)-6-aminocyclohex-3-en-1-yl)-7-((furan-2-ylmethyl)amino)-3-methylthieno[3,2-b]pyridine-5-carbonitrile]
30 to 300 | 30 to 300 | N[C@H]1CCCC(F)(F)[C@@H]1c1sc2c(NCc3cccs3)cc(Cl)nc2c1Cl [Compound 291, 2-((1R,6S)-6-amino-2,2-difluorocyclohexyl)-3,5-dichloro-N-(thiophen-2-ylmethyl)thieno[3,2-b]pyridin-7-amine]
30 to 300 | 30 to 300 | [2H]C1=C([2H])C([2H])([2H])[C@H](c2sc3c(NCc4ccccc4)cc(Cl)nc3c2C)[C@@H](N)C1([2H])[2H] [Compound 292, 2-((1S,6S)-6-aminocyclohex-3-en-1-yl-2,2,3,4,5,5-d6)-N-benzyl-5-chloro-3-methylthieno[3,2-b]pyridin-7-amine]
30 to 300 | 30 to 300 | N[C@@H]1CCCC[C@H]1c1sc2c(NCc3ccco3)cc(Cl)nc2c1Cl [Compound 296, 2-((1R,2R)-2-aminocyclohexyl)-3,5-dichloro-N-(furan-2-ylmethyl)thieno[3,2-b]pyridin-7-amine]
30 to 300 | 30 to 300 | N[C@H]1[C@H](O)CCC[C@@H]1c1sc2c(NCc3cccs3)cc(Cl)nc2c1Cl [Compound 298, (1R,2R,3S)-2-amino-3-(3,5-dichloro-7-((thiophen-2-ylmethyl)amino)thieno[3,2-b]pyridin-2-yl)cyclohexan-1-ol]
30 to 300 | 30 to 300 | N[C@@H]1CC=CC[C@H]1c1sc2c(NCc3ccco3)cc(Cl)nc2c1Cl [Compound 299, 2-((1R,6R)-6-aminocyclohex-3-en-1-yl)-3,5-dichloro-N-(furan-2-ylmethyl)thieno[3,2-b]pyridin-7-amine]
30 to 300 | 30 to 300 | CC#CCNc1cc(Cl)nc2c(Br)c([C@H]3CCCC[C@@H]3N)sc12 [Compound 301, 2-((1S,2S)-2-aminocyclohexyl)-3-bromo-N-(but-2-yn-1-yl)-5-chlorothieno[3,2-b]pyridin-7-amine]
30 to 300 | 30 to 300 | C/C=C/CNc1cc(Cl)nc2c(Cl)c([C@H]3CC=CC[C@@H]3N)sc12 [Compound 302, 2-((1S,6S)-6-aminocyclohex-3-en-1-yl)-N-((E)-but-2-en-1-yl)-3,5-dichlorothieno[3,2-b]pyridin-7-amine]
30 to 300 | 30 to 300 | CN[C@H]1CC=CC[C@@H]1c1sc2c(NCc3cccs3)cc(Cl)nc2c1C#CCCO [Compound 303, 4-(5-chloro-2-((1S,6S)-6-(methylamino)cyclohex-3-en-1-yl)-7-((thiophen-2-ylmethyl)amino)thieno[3,2-b]pyridin-3-yl)but-3-yn-1-ol]
30 to 300 | 30 to 300 | N[C@H]1CCCC[C@@H]1c1c(I)c2nc(Cl)nc(NCc3ccco3)c2n1C(F)F [Compound 304, 6-((1S,2S)-2-aminocyclohexyl)-2-chloro-5-(difluoromethyl)-N-(furan-2-ylmethyl)-7-iodo-5H-pyrrolo[3,2-d]pyrimidin-4-amine]
30 to 300 | 30 to 300 | N[C@H]1CCCO[C@@H]1c1c(Cl)c2nc(Cl)nc(NCc3cccs3)c2n1C(F)F [Compound 305, 6-((2S,3S)-3-aminotetrahydro-2H-pyran-2-yl)-2,7-dichloro-5-(difluoromethyl)-N-(thiophen-2-ylmethyl)-5H-pyrrolo[3,2-d]pyrimidin-4-amine]
30 to 300 | 30 to 300 | CC#CCNc1cc(Cl)nc2c(C)c([C@H]3CC=CC[C@@H]3N)sc12 [Compound 306, 2-((1S,6S)-6-aminocyclohex-3-en-1-yl)-N-(but-2-yn-1-yl)-5-chloro-3-methylthieno[3,2-b]pyridin-7-amine]
